Experimental data reported in US20090197906A1, “REVERSION OF MALIGNANT PHENOTYPE WITH 9-HYDROXY ELLIPTICINE DERIVATIVES” (priority 2006, published 2009).

Experiments:
[1] = tested on: B16F10 melanoma cells; assay: wound healing assay (cell motility); assay type: cell-based, murine; conditions: 50 nM
Protocol: Wound healing assay was performed to evaluate the effect of BA016DD537 on motility of malignant NIH 3T3 EF cells and melanoma cell lines B16F10 and B16BL6. All the cells were incubated at 37° C. in a humidified 5% CO2 atmosphere. About 100 000-200 000 cells were seeded in a 6-well culture plate and BA016DD537, at the different concentrations, was added 24 hours later. Cells were grown for 3 days to confluence about 90-95% and small scratch-wounds (about 200 μm-1 mm width) were made with a pipette tip. Cell debris were removed, then the cultures were incubated in complete medium for 10 h in the presence of the same concentration of BA016DD537. Then, the cells were fixed for 10 min in PBS containing 3.7% formaldehyde at 4° C.

[2] = tested on: B16F10; assay: MTT cell proliferation assay; assay type: cell-based, murine
Protocol: (§1) Growth studies were performed using the [3-(4,5 dimethylthiazol-2-yl)-2,5-diphenyl-2H-tetrazolium bromide] (Sigma) calorimetric assay.
(§2) About 1500 to 5000 cells, according to the cell line, were seeded in a 96-well culture plate 24 hours before adding increasing concentrations of BA016DD537 or BA016FZ539. The plate was incubated at 37° C. for 3 days. 10 μl MTT stock solution (5 mg/ml in phosphate buffer saline) was added to 90 μl of complete medium in each well, the incubation was continued for 3 h at 37° C. 100 μl of lysis buffer (10% sodium dodecyl sulfate, 1% HCl 1N; pH 4.7) was added to each well, and the plate was incubated overnight. The absorbance was determined using an Integrated EIA Management System (Labsystem) at a wavelength of 570 nm. The proliferation rates were calculated from the OD readings using the untreated cells as 100%.
(§3) Growth studies were performed using both MTT and SRB calorimetric assay (Sigma). About 1500 B16F10 or 3000 pancreatic cells (MIA PaCa-2 and PANC1) were seeded in a 96-well culture plate before adding increasing concentrations of monomesylate or bimesylate.
(§4) The plates were incubated at 37° C. for 3 days and then were treated depending on SRB or MTT protocols (see material and methods).
(§5) In these two cases, the proliferation rates were calculated from the OD readings using the untreated cells as 100%.

[3] = tested on: B16F10; assay: cloning assay in methylcellulose (colony formation); assay type: cell-based, murine
Protocol: (§6) Cells were embedded in complete culture medium supplemented with 0.8% methylcellulose (Methocel MC4000, Sigma), seeded in triplicate into 35-mm dishes (Greiner Bio-one Ref 627102, Dominique Dutscher) and incubated at 37° C. in a humidified 5% CO2 atmosphere. The number of cells seeded was 1000 cells per dish. After one to three weeks, according to cell lines, macroscopic clones were counted.
Cells were embedded in complete culture medium supplemented with 0.8% methyl-cellulose (Methocel MC4000, Sigma), seeded in triplicate into 35-mm dishes and incubated at 37° C. in a humidified 5% CO2 atmosphere. The number of cells seeded was 1000 cells per dish. After 9 days, macroscopic clones of murine melanoma cell line B16F10 were counted.

[4] = tested on: NCI-H187; assay: MTT cell proliferation assay; assay type: cell-based, human; conditions: NCI-H187, viability 72 h
Protocol: as §1, §2
(§7) The SRB protein stain assay was compared with the tetrazolium (MTT) colorimetric assay for in vitro chemosensitivity testing of various human small cell lung cancer cell lines.

[5] = tested on: NCI-H446; assay: MTT cell proliferation assay; assay type: cell-based, human; conditions: NCI-H446, viability 72 h, mean +/− SEM
Protocol: as §1, §2, §7

[6] = tested on: NCI-H510; assay: MTT cell proliferation assay; assay type: cell-based, human; conditions: NCI-H510, viability 72 h
Protocol: as §1, §2, §7

[7] = tested on: 1205 Lu; assay: cloning assay in methylcellulose (colony formation); assay type: cell-based, human; conditions: read-out: Inhibition of colony formation (methylcellulose) IC50
Protocol: as §6

[8] = tested on: 451 Lu; assay: as above; assay type: cell-based, human; conditions: read-out: Inhibition of colony formation (methylcellulose) IC50
Protocol: as §6

[9] = tested on: A375; assay: as above; assay type: cell-based, human; conditions: read-out: Inhibition of colony formation (methylcellulose) IC50
Protocol: as §6

[10] = tested on: C9; assay: as above; assay type: cell-based, human; conditions: read-out: Inhibition of colony formation (methylcellulose) IC50
Protocol: as §6

[11] = tested on: HT144; assay: as above; assay type: cell-based, human; conditions: read-out: Inhibition of colony formation (methylcellulose) IC50
Protocol: as §6

[12] = tested on: Mia Paca-2; assay: as above; assay type: cell-based, human; conditions: read-out: Inhibition of colony formation (methylcellulose) IC50
Protocol: as §6

[13] = tested on: PANC-1; assay: as above; assay type: cell-based, human; conditions: read-out: Inhibition of colony formation (methylcellulose) IC50
Protocol: as §6

[14] = tested on: SKMEL28; assay: as above; assay type: cell-based, human; conditions: read-out: Inhibition of colony formation (methylcellulose) IC50
Protocol: as §6

[15] = tested on: B16F10; assay: SRB (sulforhodamine B) cell proliferation assay; assay type: cell-based, murine; conditions: B16F10 (Example 11); read-out: IC50 (SRB Test-72 h)
Protocol: as §3, §4, §5

[16] = tested on: MIA PaCa-2 cells; assay: morphological changes under microscopic observation (phenotype reversal); assay type: cell-based, human; conditions: 4 μM for 3 days
Source text: (§8) Changes in configuration and number of pancreatic cell lines were observed under microscopic observation (FIG. 5).

[17] = tested on: PANC-1 cell line; assay: as above; assay type: cell-based, human
Source text: as §8

SMILES | inhibition of cell migration [1] | IC50 ([2]; B16F10, 3 days, read-out: Cytotoxic effect (MTT) IC50) | IC50 ([3]; B16F10, read-out: Inhibition of colony formation (methylcellulose) IC50) | IC50 ([2]; B16F10 (Example 11), read-out: IC50 (MTT Test-72 h)) | IC50 [4] | IC50 [5] | IC50 [6] | IC50 ([3]; B16F10, clones counted after 9 days (Example 11), listed as Monomesylate, read-out: B16F10 Inhibition of colony formation IC50) | IC50 [7] | IC50 [8] | IC50 [9] | IC50 [10] | IC50 [11] | IC50 [12] | IC50 [13] | IC50 [14] | IC50 [15] | reversal of the transformed phenotype (cell morphology) [16] | reversal of the transformed phenotype (cell morphology) [17]
Cc1c2cc[n+](CCN3CCCCC3)cc2c(C)c2c1[nH]c1ccc(O)cc12.[Cl-] [BA016DD537, 2-(β-piperidinoethyl)-9-hydroxyellipticinium chloride] | complete inhibition | 0.5 µM | 0.035 µM | – | – | – | – | – | – | – | – | – | – | – | – | – | – | – | –
CS(=O)(=O)[O-].Cc1c2cc[n+](CCN3CCCCC3)cc2c(C)c2c1[nH]c1ccc(O)cc12 [BA016FZ539, 2-(betapiperidino-2-ethyl)-9-hydroxyellipticinium methanesulfonate] | – | – | – | 2 µM | 7.9 µM | 9.8 µM | 14.8 µM | 0.067 µM | 0.247 µM | 2 µM | 0.097 µM | 0.132 µM | 0.125 µM | 0.64 µM | 4.3 µM | 0.515 µM | 4.3 µM | reversal from the transformed phenotype (FIG. 5, A) to a normal phenotype | not in PANC-1 cell line
